Data taken from BigSolDB 2.1.

NC(N)=C([N+](=O)[O-])[N+](=O)[O-]
solubility (mole fraction)
Conditions | 293.15 K | 298.15 K | 303.15 K | 308.15 K | 313.15 K | 318.15 K | 323.15 K | 328.15 K | 333.15 K
in 2-butanone | 0.00503 | 0.0056 | 0.00613 | 0.00659 | 0.00714 | 0.00782 | 0.00837 | 0.00899 | 0.00957
in DMSO | 0.172 | 0.177 | 0.181 | 0.184 | 0.189 | 0.193 | 0.197 | 0.201 | 0.206
in MIBK | 0.00278 | 0.00327 | 0.00358 | 0.00402 | 0.00428 | 0.00467 | 0.00512 | 0.00553 | 0.006
in cyclopentanone | 0.00715 | 0.00767 | 0.0083 | 0.0089 | 0.00948 | 0.0103 | 0.011 | 0.0119 | 0.0128
